Experimental data: PubChem BioAssay AID1259408 (Genetic Toxicology Data Bank (GENE-TOX), 2018)
The source made the active and inactive calls. How the calls were made is not given here.

System: GENE-TOX genotoxicity assays, various organisms and cells
Assay: GENE-TOX mutagenicity studies
Conditions: for call: Assay Type: In vivo carcinogenicity studies
[1] = Species/Cell Type: Drosophila melanogaster, Assay Type: Sex-linked recessive lethal gene mutation, Assay Code: SRL+, Evaluation Type: Evaluation A (Pre-1980)
[2] = Species/Cell Type: Nonhuman, Assay Code: CCG+, Evaluation Type: Evaluation A (Pre-1980)
[3] = Species/Cell Type: Neurospora crassa, Assay Type: Forward gene mutation, Assay Code: NEF+, Evaluation Type: Evaluation A (Pre-1980)
[4] = Species/Cell Type: Saccharomyces cerevisiae, Assay Type: Mitotic recombination or gene conversion, Assay Code: YEC+, Evaluation Type: Evaluation A (Pre-1980)
[5] = Species/Cell Type: Saccharomyces cerevisiae, Assay Type: Reverse gene mutation, Assay Code: YER+, Evaluation Type: Evaluation A (Pre-1980)
[6] = Species/Cell Type: Chinese hamster lung (V79) cells, Assay Type: Forward gene mutation at the HPRT or ouabain locus, Assay Code: V79+, Evaluation Type: Evaluation A (Pre-1980)
[7] = Species/Cell Type: Saccharomyces cerevisiae, Assay Type: Mitotic recombination or gene conversion, Assay Code: YEH-, Evaluation Type: Evaluation A (Pre-1980)
[8] = Species/Cell Type: Chinese hamster lung (V79) cells, Assay Type: Forward gene mutation at the HPRT or ouabain locus, Assay Code: V79-*, Activation: With metabolic activation, Evaluation Type: Evaluation A (Pre-1980)
[9] = Species/Cell Type: Escherichia coli polA (W3119 vs P3478), Assay Type: Rec-assay, DNA effects (bacterial DNA repair), Assay Code: RE1+, Evaluation Type: Evaluation A (Pre-1980)
[10] = Species/Cell Type: Neurospora crassa, Assay Type: Reverse gene mutation, Assay Code: NER+, Evaluation Type: Evaluation A (Pre-1980)
[11] = Species/Cell Type: Saccharomyces cerevisiae, Assay Type: Mitotic recombination or gene conversion, Assay Code: YEH+, Evaluation Type: Evaluation A (Pre-1980)

CO[C@H](C)[C@](O)(C(=O)OCC1=CCN2CC[C@H](O)[C@@H]12)C(C)C
mutagenic call (Species/Cell Type: Allium cepa, Assay Type: Chromosome aberrations, Assay Code: ALC+D, Dose Response: With dose response, Evaluation Type: Evaluation A (Pre-1980)): active; positive | mutagenic call (Species/Cell Type: Aspergillus nidulans, Assay Type: Forward gene mutation, Assay Code: ASF+, Evaluation Type: Evaluation A (Pre-1980)): active; positive | mutagenic call (Species/Cell Type: Drosophila melanogaster, Assay Type: Aneuploidy, sex chromosome gain, chromosome aberrations, Assay Code: DAGT, Evaluation Type: Evaluation A (Pre-1980)): no conclusion | mutagenic call (Species/Cell Type: Drosophila melanogaster, Assay Type: Aneuploidy, whole sex chromosome loss, chromosome aberrations, Assay Code: DAC+M, Evaluation Type: Evaluation A (Pre-1980)): active; positive | mutagenic call [1]: active; positive | mutagenic call (Species/Cell Type: Drosophila melanogaster, Sex: Male, Assay Type: Heritable translocation test, chromosome aberrations, Assay Code: DHTT, Evaluation Type: Evaluation A (Pre-1980)): no conclusion | mutagenic call (Species/Cell Type: Mammalian polychromatic erythrocytes, Assay Type: Micronucleus test, chromosome aberrations, Assay Code: MNT+, Evaluation Type: Evaluation B (Post-1980)): active; positive | mutagenic call (Species/Cell Type: Nonhuman, Assay Type: Sister-chromatid exchange (SCE) in vitro, Assay Code: SC2+D, Dose Response: With dose response, Evaluation Type: Evaluation B (Post-1980)): active; positive

CCSCCC(N)C(=O)O (stereo not drawn)
mutagenic call (Species/Cell Type: Neurospora crassa, Assay Type: Aneuploidy, chromosome aberrations, Assay Code: NEN-, Evaluation Type: Evaluation A (Pre-1980)): inactive; negative | call [2]: active; positive | mutagenic call (Species/Cell Type: Nonhuman, Assay Type: Sister-chromatid exchange (SCE) in vitro, Assay Code: SC2+, Evaluation Type: Evaluation B (Post-1980)): active; positive

O=C(Nc1ccc(Br)cc1)c1cc(Br)cc(Br)c1O
mutagenic call (Species/Cell Type: Mammalian polychromatic erythrocytes, Assay Type: Micronucleus test, chromosome aberrations, Assay Code: MNTT, Evaluation Type: Evaluation B (Post-1980)): no conclusion

O=C1C=C(N2CC2)C(=O)C(N2CC2)=C1N1CC1
mutagenic call [1]: active; positive | mutagenic call (Species/Cell Type: Drosophila melanogaster, Sex: Male, Assay Type: Heritable translocation test, chromosome aberrations, Assay Code: DHT+, Evaluation Type: Evaluation A (Pre-1980)): active; positive | mutagenic call (Species/Cell Type: Glycine max (soybean), Assay Type: Gene mutation, Assay Code: GLM+, Evaluation Type: Evaluation A (Pre-1980)): active; positive | mutagenic call (Species/Cell Type: Hordeum vulgare (barley), Assay Type: Chromosome aberrations, Assay Code: HOC+D, Dose Response: With dose response, Evaluation Type: Evaluation A (Pre-1980)): active; positive | mutagenic call (Species/Cell Type: Human lymphocytes or leukocytes, Assay Type: Chromosome aberrations in vitro, Assay Code: CY7T, Evaluation Type: Evaluation A (Pre-1980)): no conclusion | mutagenic call (Species/Cell Type: Human lymphocytes, Assay Type: Sister-chromatid exchange (SCE) in vitro, Assay Code: SCL+D, Dose Response: With dose response, Evaluation Type: Evaluation A (Pre-1980)): active; positive | mutagenic call (Species/Cell Type: Human, Assay Type: Sister-chromatid exchange (SCE) in vitro, Assay Code: SC1+D, Dose Response: With dose response, Evaluation Type: Evaluation A (Pre-1980)): active; positive | mutagenic call (Species/Cell Type: Mammalian germ cells, Sex: Male, Assay Type: Chromosome aberrations in vivo, Assay Code: CY9T, Evaluation Type: Evaluation A (Pre-1980)): no conclusion | mutagenic call (Species/Cell Type: Mammalian oocytes or early embryo, Assay Type: Chromosome aberrations in vivo, Assay Code: CYO+, Evaluation Type: Evaluation A (Pre-1980)): active; positive | mutagenic call (Species/Cell Type: Mammalian polychromatic erythrocytes, Assay Type: Micronucleus test, chromosome aberrations, Assay Code: MNT+, Evaluation Type: Evaluation A (Pre-1980)): active; positive | mutagenic call [3]: active; positive | call (Species/Cell Type: Nonhuman, Assay Code: CCG+L, Evaluation Type: Evaluation A (Pre-1980)): active; positive | mutagenic call (Species/Cell Type: Nonhuman, Assay Type: Sister-chromatid exchange (SCE) in vitro, Assay Code: SC2+D, Dose Response: With dose response, Evaluation Type: Evaluation A (Pre-1980)): active; positive | mutagenic call (Species/Cell Type: Nonhuman, Assay Type: Sister-chromatid exchange (SCE) in vivo, Assay Code: SC3+D, Dose Response: With dose response, Evaluation Type: Evaluation A (Pre-1980)): active; positive | mutagenic call (Species/Cell Type: Rodents, Sex: Female, Assay Type: Dominant lethal test, Assay Code: DLTF+D, Dose Response: With dose response, Evaluation Type: Evaluation A (Pre-1980)): active; positive | mutagenic call (Species/Cell Type: Rodents, Sex: Male, Assay Type: Dominant lethal test, Assay Code: DLT+D, Dose Response: With dose response, Evaluation Type: Evaluation A (Pre-1980)): active; positive | mutagenic call [4]: active; positive | mutagenic call [5]: active; positive | mutagenic call (Species/Cell Type: Salmonella typhimurium, Escherichia coli, Serratia marcesens, Assay Type: Forward and reverse gene mutation, host-mediated assay, Assay Code: HMN+, Evaluation Type: Evaluation A (Pre-1980)): active; positive

COC(=O)CN(CC(=O)OC)C1C[C@H]1N(CC(=O)OC)CC(=O)OC (stereo partly drawn)
mutagenic call [6]: active; positive

Cc1cc(Cc2ccc(N)c(C)c2)ccc1N
call [2]: active; positive

Nc1nc(N)nc(N)n1
mutagenic call (Species/Cell Type: Drosophila melanogaster, Assay Type: Sex-linked recessive lethal gene mutation, Assay Code: SRLT, Evaluation Type: Evaluation A (Pre-1980)): no conclusion

NC[C@@H]1CC[C@@H](N)[C@@H](O[C@H]2[C@H](O)[C@@H](O[C@H]3O[C@H](CO)[C@@H](O)[C@H](N)[C@H]3O)[C@H](N)C[C@@H]2N)O1
mutagenic call [7]: inactive; negative

Oc1cccc2c1cc1ccc3cccc4ccc2c1c34
mutagenic call [8]: inactive; negative | call (Species/Cell Type: Nonhuman, Assay Code: CCGT, Evaluation Type: Evaluation A (Pre-1980)): no conclusion | mutagenic call (Species/Cell Type: Salmonella typhimurium (one or more of the five standard strains: TA98, TA100, TA1535, TA1537, and TA1538), Assay Type: Histidine reverse gene mutation, Ames assay, Assay Code: SALT, Evaluation Type: Evaluation A (Pre-1980)): no conclusion

O=P1(N2CC2)NC2CCCC3CCCC(N1)C32 (stereo not drawn)
mutagenic call [1]: active; positive

CNC=O
mutagenic call (Species/Cell Type: Escherichia coli WP2, Assay Type: Tryptophan reverse gene mutation, Assay Code: WP2-, Evaluation Type: Evaluation A (Pre-1980)): inactive; negative

OCC(Br)(Br)Br
mutagenic call (Species/Cell Type: Rodents, Sex: Female, Assay Type: Dominant lethal test, Assay Code: DLTF-, Evaluation Type: Evaluation A (Pre-1980)): inactive; negative | mutagenic call (Species/Cell Type: Rodents, Sex: Male, Assay Type: Dominant lethal test, Assay Code: DLT-, Evaluation Type: Evaluation A (Pre-1980)): inactive; negative

Nc1ncnc2c1ncn2[C@@H]1O[C@H](CO)C[C@H]1O
mutagenic call (Species/Cell Type: Fischer rat embryo (RLV/1706) cells, Assay Type: Cell transformation, viral enhanced, Assay Code: CTR-, Evaluation Type: Evaluation A (Pre-1980)): inactive; negative | mutagenic call (Species/Cell Type: Nonhuman, Assay Type: Sister-chromatid exchange (SCE) in vitro, Assay Code: SC2T, Evaluation Type: Evaluation B (Post-1980)): no conclusion

Cc1c2ccccc2c(C)c2c1ccc1cccc(C)c12
mutagenic call [8]: inactive; negative

CC(=O)Nc1ccc(/C=C/c2ccccc2)cc1
mutagenic call (Species/Cell Type: Human diploid fibroblasts, Assay Type: Unscheduled DNA synthesis (UDS) in vitro, DNA effects, Assay Code: UDH-, Evaluation Type: Evaluation A (Pre-1980)): inactive; negative | mutagenic call (Species/Cell Type: Salmonella typhimurium (one or more of the five standard strains: TA98, TA100, TA1535, TA1537, and TA1538), Assay Type: Histidine reverse gene mutation, Ames assay, Assay Code: SAL+*, Activation: With metabolic activation, Evaluation Type: Evaluation A (Pre-1980)): active; positive

C/C=C/C1=CN2C(=O)c3cc(O[C@@H]4O[C@@H](C)[C@H](NC)[C@@](C)(O)[C@H]4O)c(C)c(O)c3N[C@H](O)[C@@H]2C1
mutagenic call (Species/Cell Type: Mammalian polychromatic erythrocytes, Assay Type: Micronucleus test, chromosome aberrations, Assay Code: MNT+U, Dose Response: Unconfirmed positive response, Evaluation Type: Evaluation B (Post-1980)): active; positive

N#CN(CCCC(NC(=O)c1ccccc1)C(N)=O)N=O (stereo not drawn)
mutagenic call [9]: active; positive

O=C(C#Cc1ccc([N+](=O)[O-])o1)NC1CCCCC1
mutagenic call (Species/Cell Type: Neurospora crassa, Assay Type: Forward gene mutation, Assay Code: NEF-, Evaluation Type: Evaluation A (Pre-1980)): inactive; negative

Cc1cc(Cl)ccc1OC(C)C(=O)O (stereo not drawn)
mutagenic call [4]: active; positive

O[C@H]1[C@H](O)[C@@H](O)c2c(cc3ccc4cccc5ccc2c3c45)[C@@H]1O
mutagenic call [8]: inactive; negative

NOS(=O)(=O)O
mutagenic call [9]: active; positive

NC(=O)c1ccc(/C=C/c2ccc([N+](=O)[O-])o2)cc1
mutagenic call [1]: active; positive | mutagenic call [3]: active; positive | mutagenic call [10]: active; positive | mutagenic call [11]: active; positive | mutagenic call [5]: active; positive

OC1C2OC2=C2C=c3ccc4cccc5ccc(c3c54)C2C1O (stereo not drawn)
mutagenic call [6]: active; positive

O=c1[nH]cc(Br)c(=O)[nH]1
mutagenic call (Species/Cell Type: Hordeum vulgare (barley), Assay Type: Gene mutation, Assay Code: HOM+D, Dose Response: With dose response, Evaluation Type: Evaluation A (Pre-1980)): active; positive | mutagenic call [7]: inactive; negative | mutagenic call (Species/Cell Type: Vicia faba, Assay Type: Chromosome aberrations, Assay Code: VIC+, Evaluation Type: Evaluation A (Pre-1980)): active; positive

Nc1nc(/C=C/c2ccc([N+](=O)[O-])o2)no1
mutagenic call (Species/Cell Type: Fischer rat embryo (RLV/1706) cells, Assay Type: Cell transformation, viral enhanced, Assay Code: CTR+, Evaluation Type: Evaluation A (Pre-1980)): active; positive | mutagenic call [3]: active; positive | mutagenic call [10]: active; positive | mutagenic call [4]: active; positive | mutagenic call [11]: active; positive | mutagenic call [5]: active; positive
